Assays:
[1] = test system: MHCC97H (human liver cancer cell line); assay: MHCC97H liver cancer xenograft model; format: in vivo, BALB/C nude mouse; details: 30 mg/kg p.o., q.d. x 4 weeks
Description: The antitumor activity of huAbF46-H4-A1(IgG2 Fc) was evaluated in a BALB/C nude mouse MHCC97H (human liver cancer cell line) xenograft model (referring to Example 16.2). Approximately 3 million MHCC97H cells in 100 μL of serum-free media were injected via s.c. to each of the 140 mice under anesthesia by 1-2% isoflurane. Ten days after subcutaneous inoculation with MHCC97H tumor cells, dosing commenced in the following treatment groups: 0 (PBS vehicle), 0.2, 1, 5 or 10 mg/kg huAbF46-H4-A1 (IgG2 Fc) i.v., q.w.×4 weeks; 30 mg/kg sorafenib p.o., q.d.×4 weeks (positive control). Each group consisted of 15 mice. Tumor volumes and body weights were measured two to three times a week for total study period about 4 weeks. The tumor volume (V) was calculated as follows: V (mm^3)={long axis length (mm)×(short axis length (mm))^2}/2.

Akt = Akt phosphorylation in Caki-1 cells (phospho-AKT1 Ser473 ELISA); format: cell-based; details: 5 ug/ml, 30 minutes (FIG. 8B)
Description: (§1) To compare agonism of the 4 types of antibodies having improved affinities, as prepared in Example 5, Caki-1 cells (Korean Cell Line Bank) were used to confirm the degree of Akt phosphorylation. Mouse IgG was used as a negative control, and antibody 5D5 (a known agonist) was used as a positive control.
(§2) 2×10^5 cells/ml of Caki-1 cells were introduced to a 96-well plate, and after 24 hours, each of 5 ug/ml of the antibodies was treated in serum free medium for 30 minutes. Lysis of the cells treated with the antibodies was performed and the degree of Akt phosphorylation was measured using a PathScan phospho-AKT1 (Ser473) chemiluminescent Sandwich ELISA kit (Cell Signaling, cat. no #7134S).
as §1, with “3” for “4”, “11,” for “5,”, “and a 5D5” for “and”, “antibody” for “antibody 5D5”
as §2, with “with” for “with the”, “and a” for “and the”, “phosphorylation inhibition” for “phosphorylation”, “(Ser473) a” for “(Ser473)”

Molecule	tumor growth (in words) [1]	activity of Akt phosphorylation inhibition compared to huAbF46-H4-A1(IgG2 Fc) (Akt)
CNC(=O)c1cc(Oc2ccc(NC(=O)Nc3ccc(Cl)c(C(F)(F)F)c3)cc2)ccn1 [sorafenib, reference compound]	significant inhibition	–
L3-11Y: heavy chain of huAbF46-H4-A1 (IgG2 Fc) with light chain SEQ ID NO: 73 (serine 27e replaced with tryptophan) (antibody) heavy: EVQLVESGGGLVQPGGSLRLSCAASGFTFTDYYMSWVRQAPGKGLEWLGFIRNKANGYTTEYSASVKGRFTISRDNSKNTLYLQMNSLRAEDTAVYYCARDNWFAYWGQGTLVTVSSASTKGPSVFPLAPCSRSTSESTAALGCLVKDYFPEPVTVSWNSGALTSGVHTFPAVLQSSGLYSLSSVVTVPSSNFGTQTYTCNVDHKPSNTKVDKTVERKCCVECPPCPAPPVAGPSVFLFPPKPKDTLMISRTPEVTCVVVDVSHEDPEVQFNWYVDGVEVHNAKTKPREEQFNSTFRVVSVLTVVHQDWLNGKEYKCKVSNKGLPAPIEKTISKTKGQPREPQVYTLPPSREEMTKNQVSLTCLVKGFYPSDIAVEWESNGQPENNYKTTPPMLDSDGSFFLYSKLTVDKSRWQQGNVFSCSVMHEALHNHYTQKSLSLSPGK light: DIQMTQSPSSLSASVGDRVTITCKSSQSLLAWGNQNNYLAWYQQKPGKAPKMLIIWASTRVSGVPSRFSGSGSGTDFTLTISSLQPEDFATYYCQQSYSRPYTFGQGTKVEIKRTVAAPSVFIFPPSDEQLKSGTASVVCLLNNFYPREAKVQWKVDNALQSGNSQESVTEQDSKDSTYSLSSTLTLSKADYEKHKVYACEVTHQGLSSPVTKSFNRGEC	–	equal or higher activity of Akt phosphorylation inhibition

— US20140154251A1, “ANTI C-MET ANTIBODY AND USES THEREOF” (Samsung Electronics Co., Ltd., priority 2011, published 2014)
